Measured values: patent US20080103191A1, “ENTACAPONE-DERIVATIVES” (priority 2006, published 2008)
Converted amounts (≈) assume the structure as drawn. Read-outs that look alike come from different tables or passages of the source.

Assays:
[1] = Solubility in Labrasol and TPGS/PG formulations; format: physicochemical
Description: Selected lipophilic carbonate compounds of formula I with promising Caco-2 permeabilities are formulated with different lipids/lipophilic excipients and/or micelles forming compounds in order to increase their solubilities. The following formulations are prepared by mixing the ingredients mentioned below: • i) Formulations comprising solubilizers in the form of lipides/lipophilic excipients: • ia) Formulation comprising Labrasol® and the selected compounds of Formula I • Labrasol®: • Caprylocaproyl macrogol-8-glyceride (CAS No. 85536-07-8 and 84963-88-2). This is a mixture of mono-, di- and triesters of glycerol and of PEG 400 with medium-chain fatty acids (C8-C10) which is marketed, for example, by Gattefossé under the mark Labrasol®; Labrasol® has an HLB value (hydrophil-lipophil-balance, Griffin, W. C.: Classification of surface active agents by HLB, J. Soc. Cosmet. 1, 1949) of 14 and has the following composition by weight:
• ib) Formulation comprising NanoSolve® 5401 (Lipoid GmbH, Germany) and the selected compounds of formula I • ic) Formulation comprising TPGS/PG in a weight ratio of 25% by weight of TPGS to 75% by weight of PG and the selected compounds of formula I. • PG: propylene glycol • TPGS: Vitamin E TPGS NF (d-α-tocopheryl polyethylene glycol 1000 succinate) which is marketed, for example, by Eastman Chemical Co • ii) Formulation comprising a micelles forming agent: • iia) Aqueous formulation comprising 30% by weight of Cremophor® RH 40 (relating to the weight of the aqueous phase) in water and the selected compounds of formula I • Cremophor® RH 40: • Generic names: • Polyoxyl 40 Hydrogenated Castor Oil (USP/NF). • Macrogol-Glycerolhydroxystearat (DAB). • Polyoxyethylenglyceroltrihydroxystearat (DAC). • Cremophor RH 40 is a non-ionic solubilizer and emulsifying agent obtained by reacting 45 moles of ethylene oxide with 1 mole of hydrogenated castor oil. The main constituent of Cremophor RH 40 is glycerol polyethylene glycol oxystearate, which, together with fatty acid glycerol polyglycol esters, forms the hydrophobic part of the product. The hydrophilic part consists of polyethylene glycols and glycerol ethoxylate. Cremophor RH 40 is a white to yellowish thin paste at 20° C. The HLB value lies between 14 and 16. Cremophor RH 40 is marketed by BASF AG.
The solubility of selected compounds of formula I in these formulations is measured and compared to the solubility of the compounds in 0.1N HCl (pH 1.0), PBS buffer (pH 7.4), and two simulated gastric fluids (i.e., FaSSIF (pH 6.5) simulating fasting sate and FeSSIF (pH 5.0) simulating fed state) (see above for details).

Plasma stability ex vivo = format: in vitro ADME; settings: human plasma, 37° C., read-out: t1/2 plasma
Description: Plasma stability is determined in human and rat plasma ex vivo. For the determination of the plasma stability of the compounds of formula I, the test compounds were incubated with human plasma (c=5 μg/mL) at 37° C. for certain time intervals up to 60, resp. 120 min (depending on the compound). Afterwards the incubations were stopped by equivalent addition of acetonitrile for protein precipitation, and the samples were mixed and centrifuged. The supernatants were adequately diluted and analyzed by HPLC with UV detection at 305 nm.
The degradation of the compounds of formula I as well as the formation of the active drug entacapone were monitored, and the half-life times of the compounds of formula I were calculated from the obtained peak areas.

[2] = Chemical hydrolysis stability at pH 1 and pH 7.4 (HPLC); format: physicochemical; settings: 37° C., over 12 h
Outline: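 Compound dissolved in 0.1 N HCl or PBS and held at 37° C over 12 h, sampling at set intervals for remaining prodrug by reversed-phase C8 HPLC with 220 nm detection. Peak areas expressed relative to first injection, ln-plotted against time; t1/2 [h] derived assuming first-order kinetics.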

[3] = Stability of TPGS/PG formulations in simulated gastric fluid (precipitate formation); format: physicochemical; settings: for Precipitate formation, directly after addition: 1.0 mL TPGS/PG solution added to 10 mL SGF, visual inspection; for Precipitate formation, 24 h: TPGS/PG solution in SGF
Description: (§1) Simulated gastric fluid (SGF) is prepared as follows. 200 mg NaCl are dissolved in 70 mL H2O. 0.7 mL concentrated HCl is added. Subsequently, 320 mg of pepsin powder is added, and the mixture is filled up to 100 mL with H2O. A clear solution is obtained (pH 1-2).
2 mL TPGS/PG is added to 5-6 mg of the respective compound of formula I, and the obtained solutions are shaken for 5 h. […] 1.0 mL of the centrifuged solution is added drop-wise to 10 mL SGF. Precipitate formation is determined by visual inspection of each solution immediately after addition of the solution comprising the respective compound of formula I in TPGS/PG to SGF and after 24 hours.

[4] = Stability of Labrasol formulations in simulated gastric fluid (precipitate formation); format: physicochemical; settings: for Precipitate formation, directly after addition: 3 mg in 1.5 mL Labrasol added to 10 mL SGF, visual inspection; for Precipitate formation, 5 min / Precipitate formation, 15 min / Precipitate formation, 30 min / Precipitate formation, 60 min / Precipitate formation, 24 h: Labrasol solution in SGF
Description: as §1
1.5 mL of Labrasol® is added to 3 mg of the respective compound of formula I, and the obtained solutions are shaken. Subsequently, each of the solutions is added to 10 mL SGF by drop-wise addition. Precipitate formation is determined by visual inspection of each solution immediately after the addition of the solution comprising the respective compound of formula I in Labrasol® to SGF and after 5, 15, 30, and 60 min, and 24 h.

[5] = Labrasol, oil or lipid, read-out: Solubility Labrasol ®
[6] = organic solvent or mixture, 25% by weight TPGS, 75% by weight PG, read-out: Solubility TPGS/PG
[7] = pH 1, 0.1 N HCl, read-out: t1/2 at pH 1 (converted)
[8] = pH 7.4, PBS buffer, read-out: t1/2 at pH 7.4 (converted)

## CCCCC(CC)COC(=O)Oc1cc(/C=C(\C#N)C(=O)N(CC)CC)cc([N+](=O)[O-])c1O (stereo not shown) [Compound 15, Carbonic acid 5-((E)-2-cyano-2-diethylcarbamoyl-vinyl)-2-hydroxy-3-nitro-phenyl ester 2-ethyl-hexyl ester]
[1]; [5]
  solubility: 50000 µg/mL (≈ 108 mM)
[1]; [6]
  solubility: 2400 µg/mL (≈ 5.2 mM)
Plasma stability ex vivo
  half-life at 5 μg/mL: 1.48 h
[2]; [7]
  half-life: 15.6 h
[2]; [8]
  half-life: 7.2 h
[3]
  Precipitate formation, directly after addition: clear
  Precipitate formation, 24 h: clear
[4]; after shaking
  Precipitate formation, directly after addition: clear after shaking
[4]; initially, before shaking
  Precipitate formation, directly after addition: First: white precipitate;
[4]
  Precipitate formation, 5 min: clear
  Precipitate formation, 15 min: clear
  Precipitate formation, 30 min: clear
  Precipitate formation, 60 min: clear
  Precipitate formation, 24 h: clear

## CCCCCCCCOC(=O)Oc1cc(/C=C(\C#N)C(=O)N(CC)CC)cc([N+](=O)[O-])c1O [Compound 35, Carbonic acid 5-((E)-2-cyano-2-diethylcarbamoyl-vinyl)-2-hydroxy-3-nitro-phenyl ester octyl ester]
[1]; [5]
  solubility: > 36000 µg/mL
[1]; [6]
  solubility: 2300 µg/mL (≈ 4.98 mM)
Plasma stability ex vivo
  half-life at 5 μg/mL: 2 h
[2]; [7]
  half-life: 14.4 h
[2]; [8]
  half-life: 6.8 h
[3]
  Precipitate formation, directly after addition: clear
  Precipitate formation, 24 h: clear
[4]; after shaking
  Precipitate formation, directly after addition: clear after shaking
[4]; initially, before shaking
  Precipitate formation, directly after addition: First: white precipitate;
[4]
  Precipitate formation, 5 min: clear
  Precipitate formation, 15 min: clear
  Precipitate formation, 30 min: clear
  Precipitate formation, 60 min: clear
  Precipitate formation, 24 h: clear

## CCN(CC)C(=O)/C(C#N)=C/c1cc(OC(=O)OCC2CCCCC2)c(O)c([N+](=O)[O-])c1 [Compound 57, Carbonic acid 5-((E)-2-cyano-2-diethylcarbamoyl-vinyl)-2-hydroxy-3-nitro-phenyl ester cyclohexylmethyl ester]
[1]; [5]
  solubility: 22000 µg/mL (≈ 49.4 mM)
[1]; [6]
  solubility: 2500 µg/mL (≈ 5.61 mM)
Plasma stability ex vivo
  half-life at 5 μg/mL: 0.302 h
[2]; [7]
  half-life: 16.5 h
[2]; [8]
  half-life: 7.7 h
[3]
  Precipitate formation, directly after addition: clear
  Precipitate formation, 24 h: clear
[4]; after shaking
  Precipitate formation, directly after addition: clear after shaking
[4]; initially, before shaking
  Precipitate formation, directly after addition: First: white precipitate;
[4]
  Precipitate formation, 5 min: clear
  Precipitate formation, 15 min: clear
  Precipitate formation, 30 min: clear
  Precipitate formation, 60 min: clear
  Precipitate formation, 24 h: clear

## CCCC(C)OC(=O)Oc1cc(/C=C(\C#N)C(=O)N(CC)CC)cc([N+](=O)[O-])c1O (stereo not shown) [Compound 63, Carbonic acid 5-((E)-2-cyano-2-diethylcarbamoyl-vinyl)-2-hydroxy-3-nitro-phenyl ester 1-methyl-butyl ester]
[1]; [5]
  solubility: 10000 µg/mL (≈ 23.8 mM)
[1]; [6]
  solubility: 1800 µg/mL (≈ 4.29 mM)
[2]; [7]
  half-life: 28.9 h
[2]; [8]
  half-life: 28.9 h
[3]
  Precipitate formation, directly after addition: clear
  Precipitate formation, 24 h: clear
[4]; after shaking
  Precipitate formation, directly after addition: clear after shaking
[4]; initially, before shaking
  Precipitate formation, directly after addition: First: white precipitate;
[4]
  Precipitate formation, 5 min: clear
  Precipitate formation, 15 min: clear
  Precipitate formation, 30 min: clear
  Precipitate formation, 60 min: clear
  Precipitate formation, 24 h: clear
